Measured values reported in article PMC3176174 (OncoTargets and therapy, 2011).

Experiments:
Experiment in all cases: cells
Type in all cases: cell-based, human
SEM cell line = test system: SEM cell line
B1 cell line = test system: B1 cell line
KOPN8 cell line = test system: KOPN8 cell line
MOLT-3 cell line = test system: MOLT-3 cell line
TIB-202 cell line = test system: TIB-202 cell line

Structure (SMILES) | IC50 (SEM cell line; Homo sapiens, 96 h) | IC50 (B1 cell line; Homo sapiens, 96 h) | IC50 (KOPN8 cell line; Homo sapiens, KOPN-8) | IC50 (MOLT-3 cell line; Homo sapiens, MOLT-3, 96 h) | IC50 (TIB-202 cell line; Homo sapiens, 96 h) | IC50 (KOPN8 cell line; Homo sapiens, KOPN-8, 96 h) | IC50 (SEM cell line; Table S1, SEM, 96 hours) | IC50 (B1 cell line; Table S1, B1, 96 hours) | IC50 (KOPN8 cell line; Table S1, KOPN8, 96 hours) | IC50 (MOLT-3 cell line; Table S1, MOLT-3, 96 hours) | IC50 (TIB-202 cell line; Table S1, TIB-202, 96 hours)
CCN(CC)CCCC(C)Nc1c2ccc(Cl)cc2nc2ccc(OC)cc12 (stereo not shown) [Acrichine] | 6.4 µM | 4.63 µM | 0.722 µM | 4.07 µM | 4.5 µM |  |  |  |  |  | 
Oc1ncnc2[nH]ncc12 [Allopurinol] | > 10 µM | > 10 µM |  | > 10 µM | > 5 µM | > 5 µM |  |  |  |  | 
CN(C)c1nc(N(C)C)nc(N(C)C)n1 [Altretamine] | > 10 µM | > 10 µM |  | > 10 µM | > 10 µM | > 10 µM |  |  |  |  | 
NCCCNCCSP(=O)(O)O [Amifostine] | > 10 µM | > 10 µM |  | > 10 µM | > 10 µM | > 10 µM |  |  |  |  | 
NCC(=O)CCC(=O)O [Aminolevulinic acid] | > 10 µM | > 10 µM |  | > 10 µM | > 10 µM | > 10 µM |  |  |  |  | 
CC(C)(C#N)c1cc(Cn2cncn2)cc(C(C)(C)C#N)c1 [Anastrozole] | 2.08 µM | > 10 µM |  | > 10 µM | > 10 µM | > 10 µM |  |  |  |  | 
Nc1ncn([C@@H]2O[C@H](CO)[C@@H](O)[C@H]2O)c(=O)n1 [Azacitidine] | 1.3 µM | 5.07 µM |  | 6.21 µM | 5.2 µM | 0.836 µM |  |  |  |  | 
CC(C)C[C@H](NC(=O)[C@H](Cc1ccccc1)NC(=O)c1cnccn1)B(O)O [Bortezomib] | < 0.01 µM | 0.00397 µM |  | > 10 µM | 0.00571 µM | < 0.01 µM |  |  |  |  | 
CS(=O)(=O)OCCCCOS(C)(=O)=O [Busulfan] | > 10 µM | > 10 µM |  | 6.36 µM | > 5 µM | > 5 µM |  |  |  |  | 
CCCCCOC(=O)Nc1nc(=O)n([C@@H]2O[C@H](C)[C@@H](O)[C@H]2O)cc1F [Capecitabine] | > 10 µM | > 10 µM |  | > 10 µM | > 10 µM | > 10 µM |  |  |  |  | 
O=NN(CCCl)C(=O)NCCCl [Carmustine] | > 10 µM | > 10 µM |  | > 10 µM | > 5 µM | > 5 µM |  |  |  |  | 
Cc1ccc(-c2cc(C(F)(F)F)nn2-c2ccc(S(N)(=O)=O)cc2)cc1 [Celecoxib] | > 10 µM | > 10 µM |  | > 10 µM | > 10 µM | > 10 µM |  |  |  |  | 
O=C(O)CCCc1ccc(N(CCCl)CCCl)cc1 [Chlorambucil] | 7.29 µM | 6.41 µM |  | 5.56 µM | 4.47 µM | 3.38 µM |  |  |  |  | 
N.N.[Cl][Pt][Cl] [Cisplatin] |  |  |  |  |  |  | > 10 µM | > 10 µM | > 5 µM | > 10 µM | > 5 µM
O=P1(N(CCCl)CCCl)NCCCO1 (stereo not shown) [Cyclophosphamide] | > 10 µM | > 10 µM |  | > 10 µM | > 5 µM | > 5 µM |  |  |  |  | 
CN(C)/N=N/c1[nH]cnc1C(N)=O [Dacarbazine] | > 10 µM | > 10 µM |  | > 10 µM | > 10 µM | > 10 µM |  |  |  |  | 
Cc1nc(Nc2ncc(C(=O)Nc3c(C)cccc3Cl)s2)cc(N2CCN(CCO)CC2)n1 [Dasatinib] | 4.05 µM | < 1e-06 µM |  | > 10 µM | < 1e-06 µM | 0.00748 µM |  |  |  |  | 
C[C@@H](CN1CC(=O)NC(=O)C1)N1CC(=O)NC(=O)C1 [Dexrazoxone] | > 10 µM | > 10 µM |  | > 10 µM | > 5 µM | > 5 µM |  |  |  |  | 
COc1cccc2c1C(=O)c1c(O)c3c(c(O)c1C2=O)C[C@@](O)(C(=O)CO)C[C@@H]3O[C@H]1C[C@H](N)[C@H](O)[C@H](C)O1 [Doxorubicin] | < 0.01 µM | 0.12 µM |  | 7.84 µM | 0.0585 µM | < 0.01 µM |  |  |  |  | 
C#Cc1cccc(Nc2ncnc3cc(OCCOC)c(OCCOC)cc23)c1 [Erlotinib] | 1 µM | 2.98 µM |  | 5.7 µM | 6.68 µM | 5.82 µM |  |  |  |  | 
C[C@]12CC[C@@H]3c4ccc(OC(=O)N(CCCl)CCCl)cc4CC[C@H]3[C@@H]1CC[C@@H]2O [Estramustine] | > 10 µM | > 10 µM |  | > 10 µM | > 10 µM | > 10 µM |  |  |  |  | 
CO[C@H]1C[C@@H]2CC[C@@H](C)[C@@](O)(O2)C(=O)C(=O)N2CCCC[C@H]2C(=O)O[C@H]([C@H](C)C[C@@H]2CC[C@@H](OCCO)[C@H](OC)C2)CC(=O)[C@H](C)/C=C(\C)[C@@H](O)[C@@H](OC)C(=O)[C@H](C)C[C@H](C)/C=C/C=C/C=C/1C [Everolimus] | < 0.01 µM | 0.834 µM |  | > 10 µM | < 0.01 µM | < 0.01 µM |  |  |  |  | 
C=C1C[C@@H]2[C@H](CC[C@]3(C)C(=O)CC[C@@H]23)[C@@]2(C)C=CC(=O)C=C12 [Exemestane] | 2.08 µM | > 10 µM |  | > 10 µM | > 10 µM | 8.89 µM |  |  |  |  | 
